Columns and labels:
[1] = test system: Human hepatic cancer cells HepG2; experiment: TG production inhibiting activity (14C-acetic acid incorporation into TG) in HepG2 cells; type: cell-based
Outline: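 HepG2 cells cultured 6 days in eRDF with 10% bovine serum, then in serum-free eRDF given compound (diluted from 20 mM DMSO stock) plus 14C-acetic acid for one day at 37 °C, 5% CO2. Lipids extracted with hexane/isopropanol 2:1 and separated by TLC; the TG spot was cut out and counted by liquid scintillation.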

[2] = Drug effect evaluation test: serum TG, total cholesterol and HDL in rats after 7 days of oral dosing; type: in vivo; conditions: SD male rats, 4 hours after final administration
Procedure: 6-(benzofuran-2-yl)-3,5-dimethyl-4-hydroxy-2H-pyran-2-one (Example 2) was suspended in a 0.5% carboxymethyl cellulose Na aqueous solution (vehicle) to prepare 20 mg/ml and 60 mg/ml administration solutions, and these were orally administered to 6-week-old SD male rats at a dose of 5 ml/kg once a day, for 7 consecutive days. CE-2 by Nihon Crea Co. was used for the rat feed, and the rats were allowed free access to food and water. The rats were separated into a vehicle-administered group of 6 rats and a drug-administered group of 6 rats for a test. At 4 hours after the final drug administration, the rats were killed under ether anesthesia, blood was drawn from the abdominal aorta, and the serum levels of TG, total cholesterol (TC) and HDL-were measured.
Triglyceride EII-HA Test Wako (product of Wako Junyaku Kogyo) was used for the TG measurement, HA Test Wako/Cholesterol E-HA Test Wako (product of Wako Junyaku Kogyo) was used for the total cholesterol (TC) measurement, and HDL-cholesterol Test Wako (product of Wako Junyaku Kogyo) was used for the HDL measurement.

[3] = 100 mg/kg orally once a day for 7 days
[4] = 300 mg/kg orally once a day for 7 days

## Cc1c(-c2cc3ccccc3o2)oc(=O)c(C)c1O [Example 2, 6-(benzofuran-2-yl)-3,5-dimethyl-4-hydroxy-2H-pyran-2-one]
[1]; HepG2, conclusion in words from Table 1
  triglyceride biosynthesis inhibiting activity: exhibits triglyceride biosynthesis inhibiting activity
[1]; Homo sapiens, 24 h, sample concentration 1 μM, HepG2, one day culture with 14C-acetic acid
  inhibition at 1 µM: 22%
[1]; Homo sapiens, 24 h, sample concentration 10 μM, HepG2, one day culture with 14C-acetic acid
  inhibition at 10 µM: 70%
[1]; Homo sapiens, 24 h, sample concentration 100 μM, HepG2, one day culture with 14C-acetic acid
  inhibition at 100 µM: 98%
[1]; Homo sapiens, HepG2, group criterion, alternatives: IC50 less than 10 μM, or at least 30% inhibition at 1 μM, or at least 50% inhibition at 10 μM
  IC50: < 10 µM
[2]; [3]
  Serum HDL-C (mg/dl) (mean ± SE): 35.0 ± 3.1 mg/dL
  Serum TG (mg/dl) (mean ± SE): 94.8 ± 6.5 mg/dL
[2]; [4]
  Serum HDL-C (mg/dl) (mean ± SE): 42.2 ± 3.8 mg/dL
  Serum TG (mg/dl) (mean ± SE): 74.8 ± 10.7 mg/dL
